{"source": "patent EP0219616A1", "about": "“N,N'-dimethyl-N,N'-4,10-dioxa-3,11-dioxo-1,13-tridecylene-bis-tetrahydropapaverinium dichloride” (S O \"PHARMACHIM\", priority 1985, dated 1987)", "key": {"[1]": {"assay": "Comparative stability in aqueous acidic medium, content by HPLC", "format": "physicochemical", "procedure": "[…] Die Prüfung wurde bei unterschiedlichen pH-Werten in dem angegebenen Intervall durch Behandlung der wässrigen Lösungen des Dichlormethylats der Formel I und des Bezylats bei einer Temperatur von 53°C während 40 Stunden durchgeführt.\nChromatografische Bedingungen: Säule mit umgekehrter Phase C18, bewegliche Phase: wässrige 0,1 M Kaliumhydrogenphosphat, enthaltend Natriumoktylhydrogensulfat (1 g/I) und Azetonitril in einem Verhältnis 1:1. Durchlaßgeschwindigkeit 1,5 ml/Min.\nEs werden je 7 Proben einer 0,5%-igen wässrigen Lösung des Dichlorids I und des Dibezylats mit bestimmten pH-Werten zubereitet, was durch Zufügen von Ortophospharsäure ereicht wird. Die Proben verweilen 40 Stunden bei einer Temperatur von 53°C. Danach wird der Prozentgehalt an Dichlorid und Dibezylat in den Proben gemessen."}, "Neuromuskel-Übertragung": {"test_system": "Neuromuskel-Übertragung", "assay": "Sciatic nerve-gastrocnemius preparation in cats: muscle contraction on nerve stimulation (neuromuscular block)", "format": "in vivo, Katzen", "conditions": "for Eintreten der Neuro-muskel-Blockierung / Wiederherstellung der Neuromuskel-Übertragung: dose 0,2 mg/kg", "from_the_text": "Die Versuche wurden an Katzen unter Einführen von gleichen Dosen des Originalpräparats \"Tracrium\" und der Verbindung der Formel I. Es wurde das klassische Verfahren \"I-schiadiensgastrocnemicus\" benutzt. Es wurde eine Kontraktion des Muskels Gastrocnemicus zufolge einer Reizung des Hüftnervs (Ischiasnervs) registriert. Die Ergebnisse sind in Tabelle II dargestellt."}, "[2]": {"assay": "Solubility compared with known salts (no method given)", "format": "physicochemical"}, "[3]": {"conditions": "pH 2,5; literature reference (4); cited from earlier work"}}, "note": "Like-named read-outs stand apart in the source and are kept apart here.", "data": [{"compound": "COc1ccc(CC2c3cc(OC)c(OC)cc3CC[N+]2(C)CCC(=O)OCCCCCOC(=O)CC[N+]2(C)CCc3cc(OC)c(OC)cc3C2Cc2ccc(OC)c(OC)c2)cc1OC", "note": "(stereo not shown) [Dichlormethylat der Formel I, N,N-Dimethyl-N,N-4,10-dioxa-3,11-dioxotridezylen-1,13-tetrachydropapaverinoil-dichlorid]", "values": [{"measurement": "remaining at 40 h", "setting": "[1]; acidic aqueous solution, pH 3, at pH 3,0 -3,27, 53°C, read-out: Prozentgehalt, Maximum", "result": 91.9, "unit": "%"}, {"measurement": "remaining at 40 h", "setting": "[1]; acidic aqueous solution, pH interval 2,46 bis 3,77, 53°C, read-out: Prozentgehalt", "result": "86 to 91.9", "unit": "%"}, {"measurement": "Stabilität im Vergleich zum Bezylat", "setting": "[1]; aqueous acidic medium, pH 1,7 bis 4,0, 53°C, 40 h", "result": "wesentlich stabiler"}, {"measurement": "remaining at 40 h", "setting": "[1]; aqueous solution, phosphoric acid, pH 2, pH 2,46, 0,5% aqueous solution, 53°C, read-out: Prozent-gehalt", "result": 88.1, "unit": "%"}, {"measurement": "remaining at 40 h", "setting": "[1]; aqueous solution, phosphoric acid, pH 2, pH 2,75, 0,5% aqueous solution, 53°C, read-out: Prozent-gehalt", "result": 89.5, "unit": "%"}, {"measurement": "remaining at 40 h", "setting": "[1]; aqueous solution, phosphoric acid, pH 3, pH 3,04, 0,5% aqueous solution, 53°C, read-out: Prozent-gehalt", "result": 91.9, "unit": "%"}, {"measurement": "remaining at 40 h", "setting": "[1]; aqueous solution, phosphoric acid, pH 3, pH 3,27, 0,5% aqueous solution, 53°C, read-out: Prozent-gehalt", "result": 91.4, "unit": "%"}, {"measurement": "remaining at 40 h", "setting": "[1]; aqueous solution, phosphoric acid, pH 3, pH 3,58, 0,5% aqueous solution, 53°C, read-out: Prozent-gehalt", "result": 87.6, "unit": "%"}, {"measurement": "Prozent-gehalt", "setting": "[1]; pH 4,09, 0,5% aqueous solution, 53°C, 40 h, listed as Dichlor-methyl der Formel I, 2400 min", "result": "70,4%"}, {"measurement": "Eintreten der Neuro-muskel-Blockierung", "setting": "Neuromuskel-Übertragung; cats", "result": "60,3 Sek."}, {"measurement": "Wiederherstellung der Neuromuskel-Übertragung", "setting": "Neuromuskel-Übertragung; cats", "result": "29,8 Min."}, {"measurement": "Eintreten, Wiederherstellung und Dauer des Effekts der Neuromuskelübertragung im Vergleich zu \"Tracrium\"", "setting": "Neuromuskel-Übertragung; cats, equal doses", "result": "keinen statistisch wesentlichen Unterschied"}, {"measurement": "biologischer Effekt bei den pharmakologischen Prüfungen", "setting": "Neuromuskel-Übertragung; same effect with smaller quantity of active substance", "result": "verbesserten biologischen Effekt"}, {"measurement": "Löslichkeit im Vergleich zu dem bekannten Dijodid und den anderen Salzen derselben Gruppe", "setting": "[2]", "result": "bessere Löslichkeit"}]}, {"compound": "COc1ccc(CC2c3cc(OC)c(OC)cc3CC[N+]2(C)CCC(=O)OCCCCCOC(=O)CC[N+]2(C)CCc3cc(OC)c(OC)cc3C2Cc2ccc(OC)c(OC)c2)cc1OC", "note": "(stereo not shown) [Dibezylat, Dibesylat des N,N-4,10-Dioxa-3,11-Dioxotridezylen-1,13-bis-tetrahydropapaverins, reference compound]", "values": [{"measurement": "remaining at 40 h", "setting": "[1]; acidic aqueous solution, pH 3, at pH 3,50, 53°C, read-out: Prozentgehalt, Maximum", "result": 73.8, "unit": "%"}, {"measurement": "remaining at 40 h", "setting": "[1]; aqueous solution, phosphoric acid, pH 1, pH 1,76, 0,5% aqueous solution, 53°C, read-out: Prozent-gehalt", "result": 60.6, "unit": "%"}, {"measurement": "remaining at 40 h", "setting": "[1]; aqueous solution, phosphoric acid, pH 2, pH 2,88, 0,5% aqueous solution, 53°C, read-out: Prozent-gehalt", "result": 72.9, "unit": "%"}, {"measurement": "remaining at 40 h", "setting": "[1]; aqueous solution, phosphoric acid, pH 3, pH 3,16, 0,5% aqueous solution, 53°C, read-out: Prozent-gehalt", "result": 73.5, "unit": "%"}, {"measurement": "remaining at 40 h", "setting": "[1]; aqueous solution, phosphoric acid, pH 3, pH 3,50, 0,5% aqueous solution, 53°C, read-out: Prozent-gehalt", "result": 73.8, "unit": "%"}, {"measurement": "remaining at 40 h", "setting": "[1]; aqueous solution, phosphoric acid, pH 3, pH 3,71, 0,5% aqueous solution, 53°C, read-out: Prozent-gehalt", "result": 72.2, "unit": "%"}, {"measurement": "remaining at 40 h", "setting": "[1]; aqueous solution, phosphoric acid, pH 4, pH 4,09, 0,5% aqueous solution, 53°C, read-out: Prozent-gehalt", "result": 68.8, "unit": "%"}, {"measurement": "Prozentgehalt niedriger im Vergleich zur Verbindung der Formel I", "setting": "[1]; pH interval 2,46 bis 3,77, 53°C, 40 h", "result": "~20", "unit": "%"}, {"measurement": "Prozentgehalt des Bezylats bei maximaler Stabilität", "setting": "[3]", "result": 76, "unit": "%"}]}, {"compound": "COc1ccc(CC2c3cc(OC)c(OC)cc3CC[N+]2(C)CCC(=O)OCCCCCOC(=O)CC[N+]2(C)CCc3cc(OC)c(OC)cc3C2Cc2ccc(OC)c(OC)c2)cc1OC", "note": "(stereo not shown) [Tracrium, Dibesylat des N,N-4,10-Dioxa-3,11-Dioxotridezylen-1,13-bis-tetrahydropapaverins, reference compound]", "values": [{"measurement": "Eintreten der Neuro-muskel-Blockierung", "setting": "Neuromuskel-Übertragung; cats", "result": "60,4 Sek."}, {"measurement": "Wiederherstellung der Neuromuskel-Übertragung", "setting": "Neuromuskel-Übertragung; cats", "result": "34,6 Min."}]}]}
